Source: the NIST ThermoML archive (doi:10.1021/je600554h)

Assay: xn = mol fraction of the nth substance listed
Details: 100 kPa, Liquid; for viscosity: Capillary tube (Ostwald / Ubbelohde) method

COC(C)(C)C [2-methoxy-2-methylpropane] + CCCCCCCC
Details	mass density [kg/m3]	viscosity [mPa·s]
298.15 K, x1 = 0.8975	729.408	–
303.15 K, x1 = 0.1019	–	0.468
303.15 K, x1 = 0.1059	696.633	–
303.15 K, x1 = 0.2123	699.177	–
303.15 K, x1 = 0.2189	–	0.447
303.15 K, x1 = 0.3019	701.546	–
303.15 K, x1 = 0.3026	–	0.43
303.15 K, x1 = 0.4029	–	0.414
303.15 K, x1 = 0.4099	704.666	–
303.15 K, x1 = 0.4995	–	0.397
303.15 K, x1 = 0.5053	707.798	–
303.15 K, x1 = 0.6005	711.146	–
303.15 K, x1 = 0.6099	–	0.382
303.15 K, x1 = 0.6934	714.806	–
303.15 K, x1 = 0.7072	–	0.367
303.15 K, x1 = 0.7967	719.238	–
303.15 K, x1 = 0.8975	724.303	–
308.15 K, x1 = 0.1019	–	0.443
308.15 K, x1 = 0.1059	692.484	–
308.15 K, x1 = 0.2123	694.926	–
308.15 K, x1 = 0.2189	–	0.425
308.15 K, x1 = 0.3019	697.212	–
308.15 K, x1 = 0.3026	–	0.409
308.15 K, x1 = 0.4029	–	0.393
308.15 K, x1 = 0.4099	700.213	–
308.15 K, x1 = 0.4995	–	0.376
308.15 K, x1 = 0.5053	703.231	–
308.15 K, x1 = 0.6005	706.458	–
308.15 K, x1 = 0.6099	–	0.362
308.15 K, x1 = 0.6934	709.988	–
308.15 K, x1 = 0.7967	714.261	–
308.15 K, x1 = 0.8975	719.151	–
313.15 K, x1 = 0.1019	–	0.42
313.15 K, x1 = 0.1059	688.303	–
313.15 K, x1 = 0.2123	690.652	–
313.15 K, x1 = 0.2189	–	0.402
313.15 K, x1 = 0.3019	692.842	–
313.15 K, x1 = 0.3026	–	0.387
313.15 K, x1 = 0.4029	–	0.374
313.15 K, x1 = 0.4099	695.728	–
313.15 K, x1 = 0.4995	–	0.358
313.15 K, x1 = 0.5053	698.629	–
313.15 K, x1 = 0.6005	701.736	–
313.15 K, x1 = 0.6934	705.127	–
313.15 K, x1 = 0.7967	709.24	–
313.15 K, x1 = 0.8975	713.95	–
318.15 K, x1 = 0.1019	–	0.398
318.15 K, x1 = 0.1059	684.108	–
318.15 K, x1 = 0.2123	686.345	–
318.15 K, x1 = 0.2189	–	0.381
318.15 K, x1 = 0.3019	688.444	–
318.15 K, x1 = 0.3026	–	0.367
318.15 K, x1 = 0.4029	–	0.355
318.15 K, x1 = 0.4099	691.207	–
318.15 K, x1 = 0.5053	693.985	–
318.15 K, x1 = 0.6005	696.968	–
318.15 K, x1 = 0.6934	700.224	–
318.15 K, x1 = 0.7967	704.169	–
318.15 K, x1 = 0.8975	708.696	–
323.15 K, x1 = 0.1019	–	0.377
323.15 K, x1 = 0.1059	679.876	–
323.15 K, x1 = 0.2123	682.017	–
323.15 K, x1 = 0.2189	–	0.361
323.15 K, x1 = 0.3019	684.017	–
323.15 K, x1 = 0.3026	–	0.349
323.15 K, x1 = 0.4099	686.655	–
323.15 K, x1 = 0.5053	689.306	–
323.15 K, x1 = 0.6005	692.159	–
323.15 K, x1 = 0.6934	695.271	–
323.15 K, x1 = 0.7967	699.039	–
328.15 K, x1 = 0.1019	–	0.359
328.15 K, x1 = 0.1059	675.617	–
328.15 K, x1 = 0.2123	677.665	–
328.15 K, x1 = 0.2189	–	0.344
328.15 K, x1 = 0.3019	679.549	–
328.15 K, x1 = 0.4099	682.067	–
328.15 K, x1 = 0.5053	684.587	–
328.15 K, x1 = 0.6005	687.304	–
328.15 K, x1 = 0.6934	690.272	–
333.15 K, x1 = 0.1019	–	0.342
333.15 K, x1 = 0.1059	671.333	–
333.15 K, x1 = 0.2123	673.25	–
333.15 K, x1 = 0.3019	675.046	–
333.15 K, x1 = 0.4099	677.434	–
333.15 K, x1 = 0.5053	679.825	–
333.15 K, x1 = 0.6005	682.397	–
338.15 K, x1 = 0.1059	667.018	–
338.15 K, x1 = 0.2123	668.815	–
338.15 K, x1 = 0.3019	670.514	–
338.15 K, x1 = 0.4099	672.758	–
343.15 K, x1 = 0.1059	662.68	–
343.15 K, x1 = 0.2123	664.349	–
343.15 K, x1 = 0.3019	665.923	–
343.15 K, x1 = 0.4099	668.038	–
348.15 K, x1 = 0.1059	658.279	–
348.15 K, x1 = 0.2123	659.83	–
348.15 K, x1 = 0.3019	661.299	–
353.15 K, x1 = 0.1059	653.843	–
353.15 K, x1 = 0.2123	655.28	–
353.15 K, x1 = 0.3019	656.638	–
358.15 K, x1 = 0.1059	649.405	–
358.15 K, x1 = 0.2123	650.681	–
358.15 K, x1 = 0.3019	651.917	–
363.15 K, x1 = 0.1059	644.85	–
363.15 K, x1 = 0.2123	646.031	–
363.15 K, x1 = 0.3019	647.14	–
